In US4248863A, “Antibiotics saframycins A, B, C, D and E and process for producing the same” (priority 1977, dated 1981):
In brackets after ≈: the same amount, converted by molar mass. Read-outs that look alike come from different tables or passages of the source.

Assays:
Bacillus subtilis = experiment: Antimicrobial spectrum, MIC (Table 4); type: cell-based; settings: 1% glucose nutrient agar, 37° C., 24 or 48 hours
[1] = tested on: Streptococcus pyogenes 090R; experiment: Antimicrobial spectrum, MIC (Table 4); type: cell-based; settings: blood agar, 37° C., 24 or 48 hours
Bacillus cereus = experiment: Antimicrobial spectrum, MIC (Table 4); type: cell-based; settings: 1% glucose nutrient agar, 37° C., 24 or 48 hours
Streptococcus pyogenes = experiment: Antimicrobial spectrum, MIC (Table 4); type: cell-based; settings: blood agar, 37° C., 24 or 48 hours
[2] = tested on: Shigella dysenteriae Shiga; experiment: microbe, parasite or virus in culture; type: cell-based
Mycobacterium phlei = experiment: Antimicrobial spectrum, MIC (Table 4); type: cell-based; settings: 3% glycerol nutrient agar for acid-fast bacteria, 37° C., 24 or 48 hours
Mycobacterium sp. 607 = experiment: Antimicrobial spectrum, MIC (Table 4); type: cell-based; settings: 3% glycerol nutrient agar for acid-fast bacteria, 37° C., 24 or 48 hours
Streptococcus faecalis = experiment: Antimicrobial spectrum, MIC (Table 4); type: cell-based; settings: 1% glucose nutrient agar, 37° C., 24 or 48 hours
Corynebacterium xerosis = experiment: Antimicrobial spectrum, MIC (Table 4); type: cell-based; settings: 1% glucose nutrient agar, 37° C., 24 or 48 hours
Penicillium glaucum = experiment: Antimicrobial spectrum, MIC (Table 4)
Mucor mucedo = experiment: Antimicrobial spectrum, MIC (Table 4)
Candida albicans = experiment: Antimicrobial spectrum, MIC (Table 4)
Rhodotorula glutinis = experiment: Antimicrobial spectrum, MIC (Table 4)
Aspergillus oryzae = experiment: Antimicrobial spectrum, MIC (Table 4)
Salmonella typhimurium = experiment: Antimicrobial spectrum, MIC (Table 4); type: cell-based; settings: 1% glucose nutrient agar, 37° C., 24 or 48 hours
[3] = tested on: Trichophyton mentagrophytes; experiment: Antimicrobial spectrum, MIC (Table 4)
[4] = tested on: Staphylococcus aureus Smith; experiment: Antimicrobial spectrum, MIC (Table 4); type: cell-based; settings: 1% glucose nutrient agar, 37° C., 24 or 48 hours
[5] = tested on: Staphylococcus aureus 209P; experiment: Antimicrobial spectrum, MIC (Table 4); type: cell-based; settings: 1% glucose nutrient agar, 37° C., 24 or 48 hours
Staphylococcus albus = experiment: Antimicrobial spectrum, MIC (Table 4); type: cell-based; settings: 1% glucose nutrient agar, 37° C., 24 or 48 hours
Micrococcus luteus = experiment: Antimicrobial spectrum, MIC (Table 4); type: cell-based; settings: 1% glucose nutrient agar, 37° C., 24 or 48 hours
Serratia marcescens = experiment: Antimicrobial spectrum, MIC (Table 4); type: cell-based; settings: 1% glucose nutrient agar, 37° C., 24 or 48 hours
[6] = tested on: Corynebacterium dephtheriae; experiment: Antimicrobial spectrum, MIC (Table 4); type: cell-based; settings: 1% glucose nutrient agar, 37° C., 24 or 48 hours
Nocardia asteroides = experiment: Antimicrobial spectrum, MIC (Table 4); type: cell-based; settings: 37° C., 24 or 48 hours
Pseudomonas aeruginosa = experiment: Antimicrobial spectrum, MIC (Table 4); type: cell-based; settings: 1% glucose nutrient agar, 37° C., 24 or 48 hours
Escherichia coli = experiment: Antimicrobial spectrum, MIC (Table 4); type: cell-based; settings: 1% glucose nutrient agar, 37° C., 24 or 48 hours
Brucella abortus = experiment: microbe, parasite or virus in culture; type: cell-based
Staphylococcus citreus = experiment: Antimicrobial spectrum, MIC (Table 4); type: cell-based; settings: 1% glucose nutrient agar, 37° C., 24 or 48 hours
Aspergillus niger = experiment: Antimicrobial spectrum, MIC (Table 4)
Klebsiella pneumoniae = experiment: Antimicrobial spectrum, MIC (Table 4); type: cell-based; settings: 1% glucose nutrient agar, 37° C., 24 or 48 hours
[7] = tested on: Staphylococcus salivarius; experiment: Antimicrobial spectrum, MIC (Table 4); type: cell-based; settings: 1% glucose nutrient agar, 37° C., 24 or 48 hours
in vivo = settings: mouse, ip
Saccharomyces cerevisiae = experiment: Antimicrobial spectrum, MIC (Table 4)
Mycobacterium avium = experiment: Antimicrobial spectrum, MIC (Table 4); type: cell-based; settings: 3% glycerol nutrient agar for acid-fast bacteria, 37° C., 24 or 48 hours
[8] = Sabouraud.dextrose.agar, 27° C., 48 hours

COC1=C(C)C(=O)C2=C(C1=O)C1C3CC4=C(C(=O)C(OC)=C(C)C4=O)C(CNC(=O)C(C)=O)N3CC(C2)N1C (stereo not shown) [saframycin B]
MIC (Bacillus subtilis; Bacillus subtilis, read-out: MIC): 25 µg/mL (≈ 46.5 µM)
MIC ([1]; Streptococcus pyogenes, 090R, read-out: MIC): 25 µg/mL (≈ 46.5 µM)
MIC (Bacillus cereus; Bacillus cereus, read-out: MIC): 100 µg/mL (≈ 186 µM)
MIC (Streptococcus pyogenes; Streptococcus pyogenes, read-out: MIC): 12.5 µg/mL (≈ 23.3 µM)
MIC ([2]; Shigella dysenteriae): > 100 µg/mL
MIC (Mycobacterium phlei; Mycolicibacterium phlei, read-out: MIC): 50 µg/mL (≈ 93 µM)
MIC (Mycobacterium sp. 607; Mycobacterium, SP.607, read-out: MIC): 100 µg/mL (≈ 186 µM)
MIC (Streptococcus faecalis; Enterococcus faecalis, read-out: MIC): > 100 µg/mL
MIC (Corynebacterium xerosis; Corynebacterium xerosis, read-out: MIC): 12.5 µg/mL (≈ 23.3 µM)
MIC (Penicillium glaucum; Penicillium, 48 h): > 100 µg/mL
MIC (Mucor mucedo; Mucor mucedo, 48 h): > 100 µg/mL
MIC (Candida albicans; Candida albicans, 48 h): > 100 µg/mL
MIC (Rhodotorula glutinis; Rhodotorula glutinis, 48 h): > 100 µg/mL
MIC (Aspergillus oryzae; Aspergillus oryzae, 48 h): > 100 µg/mL
MIC (Salmonella typhimurium; Salmonella enterica, TYPHIMURIUM, read-out: MIC): > 100 µg/mL
MIC ([3]; Trichophyton mentagrophytes, 72 h): > 100 µg/mL
MIC ([4]; Staphylococcus aureus, read-out: MIC): 1.56 µg/mL (≈ 2.9 µM)
MIC ([5]; Staphylococcus aureus, 209P, read-out: MIC): 12.5 µg/mL (≈ 23.3 µM)
MIC (Staphylococcus albus; Staphylococcus, read-out: MIC): 12.5 µg/mL (≈ 23.3 µM)
MIC (Micrococcus luteus; Micrococcus luteus, read-out: MIC): 1.56 µg/mL (≈ 2.9 µM)
MIC (Serratia marcescens; Serratia marcescens, read-out: MIC): > 100 µg/mL
MIC ([6]; Corynebacterium, read-out: MIC): 0.4 µg/mL (≈ 0.744 µM)
MIC (Nocardia asteroides; Nocardia asteroides, read-out: MIC): 50 µg/mL (≈ 93 µM)
MIC (Pseudomonas aeruginosa; Pseudomonas aeruginosa, read-out: MIC): > 100 µg/mL
MIC (Escherichia coli; Escherichia coli, read-out: MIC): > 100 µg/mL
MIC (Brucella abortus; Brucella abortus): 50 µg/mL (≈ 93 µM)
MIC (Staphylococcus citreus; Staphylococcus, read-out: MIC): 12.5 µg/mL (≈ 23.3 µM)
MIC (Aspergillus niger; Aspergillus niger, 48 h): > 100 µg/mL
MIC (Klebsiella pneumoniae; Klebsiella pneumoniae, read-out: MIC): 12.5 µg/mL (≈ 23.3 µM)
MIC ([7]; Staphylococcus, read-out: MIC): 100 µg/mL (≈ 186 µM)
MTD (in vivo): 250 mg/kg
MIC (Saccharomyces cerevisiae; Saccharomyces cerevisiae, 48 h): > 100 µg/mL
MIC (Mycobacterium avium; Mycobacterium avium, read-out: MIC): 100 µg/mL (≈ 186 µM)

COC1=C(C)C(=O)C2=C(C1=O)[C@@H]1[C@@H]3CC4=C(C(=O)C(OC)=C(C)C4=O)[C@H](CNC(=O)C(C)=O)N3C[C@H]([C@H]2OC)N1C [saframycin C]
MIC (Bacillus subtilis): 25.0 µg/mL (≈ 44 µM)
MIC [1]: 12.5 µg/mL (≈ 22 µM)
MIC (Bacillus cereus): 100.0 µg/mL (≈ 176 µM)
MIC (Streptococcus pyogenes): 25.0 µg/mL (≈ 44 µM)
MIC ([2]; 1% glucose nutrient agar, 37° C., 24 or 48 hours): > 100.0 µg/mL
MIC (Mycobacterium phlei): > 100.0 µg/mL
MIC (Mycobacterium sp. 607): > 100.0 µg/mL
MIC (Streptococcus faecalis): > 100.0 µg/mL
MIC (Corynebacterium xerosis): 25.0 µg/mL (≈ 44 µM)
MIC (Penicillium glaucum; [8]): > 100.0 µg/mL
MIC (Mucor mucedo; [8]): > 100.0 µg/mL
MIC (Candida albicans; [8]): > 100.0 µg/mL
MIC (Rhodotorula glutinis; [8]): > 100.0 µg/mL
MIC (Aspergillus oryzae; [8]): > 100.0 µg/mL
MIC (Salmonella typhimurium): > 100.0 µg/mL
Solubility (Solubility; acetone): Easily soluble
Solubility (Solubility; benzene): Easily soluble
Solubility (Solubility; chloroform): Easily soluble
Solubility (Solubility; esters): Easily soluble
Solubility (Solubility; ethyl ether): Sparingly soluble
Solubility (Solubility; lower alcohols): Easily soluble
Solubility (Solubility; n-hexane): Insoluble
Solubility (Solubility; water): Insoluble
MIC ([3]; Sabouraud.dextrose.agar, 27° C., 72 hours): > 100.0 µg/mL
MIC [4]: 6.25 µg/mL (≈ 11 µM)
MIC [5]: 25.0 µg/mL (≈ 44 µM)
MIC (Staphylococcus albus): 25.0 µg/mL (≈ 44 µM)
MIC (Micrococcus luteus): 6.25 µg/mL (≈ 11 µM)
MIC (Serratia marcescens): > 100.0 µg/mL
MIC [6]: 3.125 µg/mL (≈ 5.51 µM)
MIC (Nocardia asteroides): 50.0 µg/mL (≈ 88.1 µM)
MIC (Pseudomonas aeruginosa): > 100.0 µg/mL
MIC (Escherichia coli): > 100.0 µg/mL
MIC (Brucella abortus; blood agar, 37° C., 24 or 48 hours): 50.0 µg/mL (≈ 88.1 µM)
MIC (Staphylococcus citreus): 25.0 µg/mL (≈ 44 µM)
MIC (Aspergillus niger; [8]): > 100.0 µg/mL
MIC (Klebsiella pneumoniae): 50.0 µg/mL (≈ 88.1 µM)
MIC [7]: > 100.0 µg/mL
MIC (Saccharomyces cerevisiae; [8]): > 100.0 µg/mL
MIC (Mycobacterium avium): > 100.0 µg/mL
